Consider three compounds from publication PMC9109057, “Designing Self‐Assembling Chimeric Peptide Nanoparticles with High Stability for Combating Piglet Bacterial Infections” (Advanced Science, 2022).

Values after ≈ are worked out from the molar mass of the structure shown. Where a SMILES comes first, the peptide text is derived from it. [ ]: non-standard residue; d: D form. The star is where a group is joined. PEG8 = NCCOCCOCCOCCOCCOCCOCCOCCOCCC(=O)O; Myristoyl = CCCCCCCCCCCCCC(=O)*

One data set deals with porcine red blood cells. Type of data set: cell-based. The conditions noted are these: pH 7.4. How it is done:
Fresh porcine red blood cells were used to study the hemolysis of self‐assembled peptide nanoparticles.^[ [48] ^] The red blood cells were collected by washing with PBS (10 × 10^−3 M, pH 7.4) until the supernatant became clear. A 10% v/v red blood cell suspension was prepared with PBS, and peptide nanoparticles with a final concentration of 128 × 10^−6 M were added to the suspension (1 mL). After gentle incubation at 37 °C for 2 h, the cells were centrifuged at 6000 rpm for 5 min, and the absorbance of the supernatant was measured at 570 nm. Two red blood cell suspensions (one containing 0.2% Triton X‐100, the other without peptide nanoparticles) were used as positive and negative controls, respectively. The hemolysis of each sample was calculated, and images were collected.

For the next data set, the system named is HEK293T cells. The data set is described as follows: Cytotoxicity assay (MTT; SYTO9/PI live/dead imaging). The data set is classed as cell-based, Human. As to conditions: 64 × 10^−6 M, 2 h, 37 °C, laser confocal microscope. How it is done: 3‐(4,5‐dimethylthiazol‐2‐yl)‐2,5‐diphenyltetrazolium bromide (MTT) dye was used to determine the cytotoxicity of the peptide nanoparticles.^[ [47] ^] Human embryonic kidney (HEK) 293T cells were seeded into 96‐well plates at a concentration of (1–2) × 10^5 cells per well in high glucose DMEM and placed in a cell incubator (5% CO2, 37 °C) for 24 h. After discarding the medium, peptides (100 µL) were added with a concentration range of 0.125 × 10^−6–64 × 10^−6 M to wells 1–10 of a 96‐well plate and incubated at 37 ℃ for 2 h. Samples without peptides were used as positive controls and samples without cells were used as negative controls. Subsequently, 20 µL of MTT (5 mg mL^−1) was added to each well before another 4 h of incubation. After discarding the supernatant, 150 µL of dimethyl sulfoxide was added to each well of the 96‐well plate, to fully dissolve the crystals; then, the absorbance at a wavelength of 570 nm was measured using a microplate reader. Each test was performed in duplicate and repeated three times. Cell viability was expressed as a percentage. For laser confocal microscope samples, after the peptides (the final concentration is 64 × 10^−6 M) were added to a 96‐well plate, the final concentration of 5 × 10^−6 M SYTO9 and 20 µg mL^−1 PI dye was added to a 96‐well plate, and incubated at 37 ℃ for 2 h. Cells were imaged using a laser scanning confocal microscope. A sample without peptide nanoparticles was used as a control.

The next data set deals with E. coli ATCC25922. The data set is classed as cell-based. How it is done: (§1) The MICs of the self‐assembling peptide nanoparticles were determined using the modified broth microdilution method.^[ [46] ^] The bacteria were resuspended in a logarithmic growth phase in a Mueller–Hinton broth (MHB) medium, the optical density (OD) at a wavelength of 600 nm was adjusted to ≈ 0.4, and the suspension was diluted 1000 times with MHB. In a 96‐well plate, the peptides were diluted via multiple dilutions using a 0.2% bovine serum albumin solution to a concentration range of 0.25 × 10^−6–128 × 10^−6 M. Subsequently, the diluted bacterial solution and peptide solution were mixed in a 1:1 ratio in a 96‐well plate and incubated at 37 °C. After 18–24 h, the absorbance at 492 nm was measured using a microplate reader. The MIC value was defined as the lowest peptide nanoparticle concentration without bacterial growth. Each test was performed in duplicate and repeated three times.

The test system of the next data set is P. aeruginosa 27853. Type of data set: cell-based. The method, then:
as §1

In another data set the test system is S. aureus ATCC6538. Type of data set: cell-based. How it is done:
as §1

In another data set the test system is C57BL/6 mice. As to conditions: mouse, in vivo, ip. The method, then:
Healthy female C57BL/6 mice (weight is about 20 g) were randomly divided into five groups with six replicates per group. Mice were acclimated for 3 d in an environment of suitable temperature (20–24 °C), humidity (50–60%), and alternating light and dark. During the assay, the first group of mice was intraperitoneally injected with 150 µL of saline (once daily), and the second to fifth groups of mice were intraperitoneally injected with 150 µL nanoparticles NPs1 or NPs2 at doses of 15 and 30 mg kg^−1 (once daily). Continuous injection was given for 7 days. At 12 h after the last administration, the mice were euthanized using mild ether anesthesia. Blood samples were taken from the mice's orbital vein, and serum was analyzed using an automatic biochemical analyzer. The kidneys and livers of the mice were taken, weighed, and fixed with 4% paraformaldehyde; then, histological analysis was performed via H&E staining.

A further data set concerns the target T1, chymotrypsin (Bos taurus, UniProt P00766).
T1 construct: purchased Sigma-Aldrich (China)
The data set is described as follows: Protease stability assay (MIC and RP-HPLC read-out). As to conditions: equal volumes of peptide 2560 × 10^−6 M and chymotrypsin 8 mg mL^−1, 37 °C, 1 h; MIC vs E. coli ATCC25922 and S. aureus ATCC6538; n = 6. The data set is classed as in vitro ADME. How it is done: (§2) An equal volume of peptide nanoparticles (2560 × 10^−6 M) and pepsin, trypsin, or chymotrypsin (8 mg mL^−1) was mixed and incubated at 37 °C for 1 h. Then, the MICs of peptide nanoparticles against E. coli ATCC25922 and S. aureus ATCC6538 were measured using the above‐mentioned method. Each test was performed in duplicate and repeated three times.
(§3) For RP‐HPLC, an equal volume of peptide nanoparticles (2560 × 10^−6 M) and pepsin, trypsin, or chymotrypsin (4 or 8 mg mL^−1) was mixed. The mixed solution was incubated at 37 °C for a predetermined time (0, 2, 4, or 8 h), and the protease was completely inactivated by heating in boiling water at 100 °C for 5 min. The concentration of peptide nanoparticles in the samples was then diluted to 256 × 10^−6 M, and the samples were analyzed using an RP‐HPLC system equipped with an Acchorm Unitary C18 column (5 µm, 100 Å, 4.6 mm × 250 mm). A gradient of 42% to 96% acetonitrile in water with 0.1% trifluoroacetic acid was used as the mobile phase at a flow rate of 0.8 mL min^−1. UV detection was performed at a wavelength of 214 nm.

For another data set, the target named is T2, pepsin (Sus scrofa, UniProt P00791).
T2 construct: purchased Sigma-Aldrich (China)
The description is as above. Type of data set: in vitro ADME. The conditions noted are these: for Antibacterial activity (MIC) after treatment with pepsin: equal volumes of peptide 2560 × 10^−6 M and pepsin 8 mg mL^−1, 37 °C, 1 h, MIC vs E. coli ATCC25922 and S. aureus ATCC6538, n = 6; for RP-HPLC peak shape and area after treatment with pepsin: pepsin 4 or 8 mg mL^−1, 37 °C, 8 h vs 0 h control, C18 RP-HPLC, UV 214 nm. The method, then:
as §2, §3

For the next data set, the system named is trypsin. Described as above. The data set is classed as in vitro ADME. As to conditions: equal volumes of peptide 2560 × 10^−6 M and trypsin 8 mg mL^−1, 37 °C, 1 h; MIC vs E. coli ATCC25922 and S. aureus ATCC6538; n = 6. How it is done:
as §2, §3

For a further data set, the system named is S. aureus CVCC1882. The data set is classed as cell-based. How it is done:
as §1

A further data set deals with C. rodentium DBS100. The data set is classed as cell-based. The method, then: as §1
The next data set relates to S.epidermidis 49134. The data set is classed as cell-based. The method, then:
as §1

T2 sequence (P00791 60-385): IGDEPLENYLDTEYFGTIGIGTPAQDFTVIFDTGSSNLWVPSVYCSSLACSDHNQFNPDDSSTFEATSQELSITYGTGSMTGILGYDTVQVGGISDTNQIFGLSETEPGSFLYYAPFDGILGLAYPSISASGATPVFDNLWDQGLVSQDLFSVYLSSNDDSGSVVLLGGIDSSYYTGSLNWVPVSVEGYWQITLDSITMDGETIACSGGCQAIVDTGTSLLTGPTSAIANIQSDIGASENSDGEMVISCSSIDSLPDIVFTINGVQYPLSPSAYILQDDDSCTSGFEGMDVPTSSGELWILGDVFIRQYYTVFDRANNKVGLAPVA

In turn, `CCCCCCCCCCCCCC(=O)N1CCC[C@H]1C(=O)N[C@@H](Cc1ccccc1)C(=O)N1CCC[C@H]1C(=O)N[C@@H](Cc1ccccc1)C(=O)N1CCC[C@H]1C(=O)N[C@@H](Cc1ccccc1)C(=O)N1CCC[C@H]1C(=O)N[C@@H](CCCCNC(=O)CCOCCOCCOCCOCCOCCOCCOCCOCCN)C(=O)N1CCC[C@H]1C(=O)N[C@@H](CCCCN)C(=O)N1CCC[C@H]1C(=O)N[C@@H](CCCCN)C(=O)N1CCC[C@H]1C(=O)N[C@@H](CCCCN)C(=O)N1CCC[C@H]1C(=O)N[C@@H](CCCCN)C(=O)N1CCC[C@H]1C(=O)N[C@@H](CCCCN)C(=O)N1CCC[C@H]1C(N)=O` [NPs1] (Myristoyl-PFPFPFPK(PEG8)PKPKPKPKPKP-NH2) gave an MHC in the data set with porcine red blood cells greater than 128. For the same compound, the “Live/dead (SYTO9/PI) imaging of HEK293T cells” value (“Live/dead (SYTO9/PI) imaging” for short) in the data set with HEK293T cells was “only led to a few cell deaths”. For the same compound, the “MIC E. coli 25922” value against E. coli ATCC25922 amounted to 9.3 ± 3.0 µM (≈ 26.3 µg/mL). In the data set on P. aeruginosa 27853, the “MIC P. aeruginosa 27853” value is 12.0 ± 4.0 µM (≈ 34 µg/mL). For the same compound, in the data set on S. aureus ATCC6538, the “MIC S. aureus 6538” value was 5.3 ± 1.9 µM (≈ 15 µg/mL). The “Side effects on mice” value in the data set with C57BL/6 mice is “negligible”. Besides, the “Antibacterial activity (MIC) after treatment with chymotrypsin” value on chymotrypsin is listed as “remained essentially unchanged”. For the same compound, at pepsin, the “Antibacterial activity (MIC) after treatment with pepsin” value is reported as “remained essentially unchanged”; the “RP-HPLC peak shape and area after treatment with pepsin” value is “remained intact”. Besides, the “Antibacterial activity (MIC) after treatment with trypsin” value with trypsin is “remained essentially unchanged”.

As to `CCCCCCCCCCCCCC(=O)N1CCC[C@H]1C(=O)N[C@@H](Cc1ccccc1)C(=O)N1CCC[C@H]1C(=O)N[C@@H](Cc1ccccc1)C(=O)N1CCC[C@H]1C(=O)N[C@@H](Cc1ccccc1)C(=O)N1CCC[C@H]1C(=O)N[C@@H](CCCCN)C(=O)N1CCC[C@H]1C(=O)N[C@@H](CCCCN)C(=O)N1CCC[C@H]1C(=O)N[C@@H](CCCCN)C(=O)N1CCC[C@H]1C(=O)N[C@@H](CCCCN)C(=O)N1CCC[C@H]1C(=O)N[C@@H](CCCCN)C(=O)N1CCC[C@H]1C(=O)N[C@@H](CCCCNC(=O)CCOCCOCCOCCOCCOCCOCCOCCOCCN)C(=O)N1CCC[C@H]1C(N)=O` [NPs2] (Myristoyl-PFPFPFPKPKPKPKPKPK(PEG8)P-NH2), the MHC with porcine red blood cells is on record as greater than 128. Also, the “Live/dead (SYTO9/PI) imaging” value with HEK293T cells is “only led to a few cell deaths”. For the same compound, the “MIC E. coli 25922” value against E. coli ATCC25922 was found to be 8 µM (≈ 22.7 µg/mL). The “MIC S. aureus 1882” value in the data set on S. aureus CVCC1882 was 10.0 ± 4.5 µM (≈ 28.3 µg/mL). Further, the “MIC C. rodentium DBS100” value against C. rodentium DBS100 was 6.7 ± 1.9 µM (≈ 19 µg/mL). For the same compound, in the data set on S.epidermidis 49134, the “MIC S.epidermidis 49134” value came out at 9.3 ± 3.0 µM (≈ 26.3 µg/mL). In addition, the “MIC P. aeruginosa 27853” value against P. aeruginosa 27853 came out at 13.3 ± 3.8 µM (≈ 37.7 µg/mL). Besides, in the data set on S. aureus ATCC6538, the “MIC S. aureus 6538” value was determined as 6.7 ± 1.9 µM (≈ 19 µg/mL). The “Side effects on mice” value in the data set with C57BL/6 mice is “negligible”. The “Antibacterial activity (MIC) after treatment with chymotrypsin” value at chymotrypsin is reported as “remained essentially unchanged”. On pepsin, the “Antibacterial activity (MIC) after treatment with pepsin” value is given as “remained essentially unchanged”; the “RP-HPLC peak shape and area after treatment with pepsin” value is “remained intact”. Moreover, the “Antibacterial activity (MIC) after treatment with trypsin” value with trypsin was “remained essentially unchanged”.

Regarding `CCCCCCCCCCCCCC(=O)N1CCC[C@H]1C(=O)N[C@@H](Cc1ccccc1)C(=O)N1CCC[C@H]1C(=O)N[C@@H](Cc1ccccc1)C(=O)N1CCC[C@H]1C(=O)N[C@@H](Cc1ccccc1)C(=O)N1CCC[C@H]1C(=O)N[C@@H](CCCCN)C(=O)N1CCC[C@H]1C(=O)N[C@@H](CCCCN)C(=O)N1CCC[C@H]1C(=O)N[C@@H](CCCCN)C(=O)N1CCC[C@H]1C(=O)N[C@@H](CCCCN)C(=O)N1CCC[C@H]1C(=O)N[C@@H](CCCCN)C(=O)N1CCC[C@H]1C(=O)N[C@@H](CCCCN)C(=O)N1CCC[C@H]1C(=O)NCCOCCOCCOCCOCCOCCOCCOCCOCCC(N)=O` [NPs3] (Myristoyl-PFPFPFPKPKPKPKPKPKP[PEG8]-NH2), the MHC in the data set with porcine red blood cells is greater than 128. Also, the “Live/dead (SYTO9/PI) imaging” value in the data set with HEK293T cells was “only led to a few cell deaths”. Moreover, the “MIC E. coli 25922” value in the data set with E. coli ATCC25922 stood at 9.3 ± 3.0 µM (≈ 26.3 µg/mL). Further, the “MIC S. aureus 1882” value against S. aureus CVCC1882 was 14.7 ± 3.0 µM (≈ 41.6 µg/mL). In the data set with S.epidermidis 49134, the “MIC S.epidermidis 49134” value worked out at 9.3 ± 3.0 µM (≈ 26.3 µg/mL). In the data set with P. aeruginosa 27853, the “MIC P. aeruginosa 27853” value amounted to 21.3 ± 7.5 µM (≈ 60.3 µg/mL). Moreover, in the data set on S. aureus ATCC6538, the “MIC S. aureus 6538” value is 7.3 ± 1.5 µM (≈ 20.7 µg/mL).
